Experimental data as given in patent US8653109B2, “Substituted bipyridine derivatives and their use as adenosine receptor ligands” (Bayer Intellectual Property GmbH, priority 2006, dated 2014).

Legend:
Assay type in all cases: cell-based
[1] = target: T1, adenosine A2b receptor (Homo sapiens, UniProt P29275); test: Indirect determination of adenosine agonism by way of gene expression (cAMP-dependent luciferase), A2b cells; conditions: CHO cells stably transfected with A2b receptor cDNA; 50% of the maximum stimulation of luciferase
T1 construct: expressed in transfected cells; host or cells: CHO (Chinese Hamster Ovary)
T1 sequence (P29275 1-332): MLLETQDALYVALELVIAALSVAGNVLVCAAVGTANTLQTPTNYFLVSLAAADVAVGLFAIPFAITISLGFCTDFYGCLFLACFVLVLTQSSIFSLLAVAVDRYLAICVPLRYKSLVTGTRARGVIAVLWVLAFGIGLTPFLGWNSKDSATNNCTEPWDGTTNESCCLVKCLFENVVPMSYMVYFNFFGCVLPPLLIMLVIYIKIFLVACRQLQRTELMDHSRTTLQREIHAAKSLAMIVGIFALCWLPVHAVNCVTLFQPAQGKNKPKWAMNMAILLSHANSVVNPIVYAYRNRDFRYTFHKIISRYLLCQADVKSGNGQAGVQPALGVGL
Source text: (§1) B-1. Indirect Determination of the Adenosine Agonism by Way of Gene Expression
(§2) Cells of the CHO (Chinese Hamster Ovary) permanent cell line are transfected stably with the cDNA for the adenosine receptor subtypes A1, A2a and A2b. The adenosine A1 receptors are coupled to the adenylate cyclase by way of Gi proteins, while the adenosine A2a and A2b receptors are coupled by way of Gs proteins. In correspondence with this, the formation of cAMP in the cell is inhibited or stimulated, respectively. After that, expression of the luciferase is modulated by way of a cAMP-dependent promoter. The luciferase test is optimized, with the aim of high sensitivity and reproducibility, low variance and good suitability for implementation on a robot system, by varying several test parameters, such as cell density, duration of the growth phase and the test incubation, forskolin concentration and medium composition. The following test protocol is used for pharmacologically characterizing cells and for the robot-assisted substance screening:
(§3) The stock cultures are grown, at 37° C. and under 5% CO2, in DMEM/F12 medium containing 10% FCS (foetal calf serum) and in each case split 1:10 after 2-3 days. The test cultures are seeded in 384-well plates with 2000 cells per well and grown at 37° C. for approx. 48 hours. The medium is then replaced with a physiological sodium chloride solution (130 mM sodium chloride, 5 mM potassium chloride, 2 mM calcium chloride, 20 mM HEPES, 1 mM magnesium chloride hexahydrate, 5 mM sodium bicarbonate, pH 7.4). The substances to be tested, which are dissolved in DMSO, are pipetted into the test cultures (maximum final concentration of DMSO in the test mixture: 0.5%) in a dilution series of from 5×10^−11M to 3×10^−6M (final concentration). 10 minutes later, forskolin is added to the A1 cells and all the cultures are subsequently incubated at 37° C. for four hours. After that, 35 μl of a solution which is composed of 50% lysis reagent (30 mM disodium hydrogenphosphate, 10% glycerol, 3% TritonX100, 25 mM TrisHCl, 2 mM dithiotreitol (DTT), pH 7.8) and 50% luciferase substrate solution (2.5 mM ATP, 0.5 mM luciferin, 0.1 mM coenzyme A, 10 mM tricine, 1.35 mM magnesium sulphate, 15 mM DTT, pH 7.8) are added to the test cultures, which are shaken for approx. 1 minute and the luciferase activity is measured using a camera system. The EC50 values are determined, i.e., the concentrations at which 50% of the luciferase answer is inhibited in the case of the A1 cell, and, respectively, 50% of the maximum stimulation with the corresponding substance is achieved in the case of the A2b and A2a cells. […] Pharmacol., 357 (1998), 1-9).

[2] = target: T2, adenosine A1 receptor (Homo sapiens, UniProt P30542); test: Indirect determination of adenosine agonism by way of gene expression (cAMP-dependent luciferase), A1 cells; conditions: CHO cells stably transfected with A1 receptor cDNA; 1 μM forskolin; concentration at which 50% of the luciferase answer is inhibited
T2 construct: expressed in transfected cells; host or cells: CHO (Chinese Hamster Ovary)
T2 sequence (P30542 1-326): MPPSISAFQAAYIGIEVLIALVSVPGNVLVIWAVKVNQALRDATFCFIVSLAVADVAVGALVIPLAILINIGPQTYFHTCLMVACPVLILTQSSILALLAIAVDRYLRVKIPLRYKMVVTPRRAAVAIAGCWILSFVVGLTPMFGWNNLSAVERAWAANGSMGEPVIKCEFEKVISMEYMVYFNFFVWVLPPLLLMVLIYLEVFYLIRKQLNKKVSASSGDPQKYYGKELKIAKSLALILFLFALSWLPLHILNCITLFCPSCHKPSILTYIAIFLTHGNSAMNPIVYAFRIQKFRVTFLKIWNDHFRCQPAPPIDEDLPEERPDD
Source text: as §1, §2, §3

[3] = target: T3, adenosine A2a receptor (Homo sapiens, UniProt P29274); test: Indirect determination of adenosine agonism by way of gene expression (cAMP-dependent luciferase), A2a cells; conditions: CHO cells stably transfected with A2a receptor cDNA; 50% of the maximum stimulation of luciferase
T3 construct: expressed in transfected cells; host or cells: CHO (Chinese Hamster Ovary)
T3 sequence (P29274 whole entry): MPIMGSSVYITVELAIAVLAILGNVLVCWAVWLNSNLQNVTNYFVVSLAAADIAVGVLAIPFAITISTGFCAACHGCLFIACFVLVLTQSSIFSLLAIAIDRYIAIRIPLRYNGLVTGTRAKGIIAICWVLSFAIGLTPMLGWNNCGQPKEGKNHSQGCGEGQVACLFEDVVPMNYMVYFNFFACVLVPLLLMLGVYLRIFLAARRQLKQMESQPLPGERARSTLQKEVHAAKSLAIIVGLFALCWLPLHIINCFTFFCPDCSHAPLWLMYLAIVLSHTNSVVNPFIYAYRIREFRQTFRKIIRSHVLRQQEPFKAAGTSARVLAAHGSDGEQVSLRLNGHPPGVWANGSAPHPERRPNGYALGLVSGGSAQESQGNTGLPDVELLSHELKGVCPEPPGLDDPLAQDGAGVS
Source text: as §1, §2, §3

SMILES	EC50 [1] [nM]	EC50 [2] [nM]	EC50 [3] [nM]
N#Cc1c(N)nc(SCc2csc(-c3ccc(Cl)cc3)n2)c(C#N)c1-c1ccc(OCCO)nc1 [Example 19, 2′-Amino-6′-({[2-(4-chlorophenyl)-1,3-thiazol-4-yl]methyl}thio)-6-(2-hydroxyethoxy)-3,4′-bipyridine-3′,5′-dicarbonitrile]	234	0.04	663
Cc1cc(CSc2nc(N)c(C#N)c(-c3ccc(OCCO)nc3)c2C#N)nc(Nc2ccc(F)cc2)n1 [Example 21]	> 3000	3.6	> 3000
N#Cc1c(N)nc(SCc2cccc(Nc3ccncc3)n2)c(C#N)c1-c1ccc(OCCO)nc1 [Example 22]	117	0.6	120
N#Cc1c(N)nc(SCc2ncon2)c(C#N)c1-c1ccc(OCCO)nc1 [Example 25]	> 3000	4.1	> 3000
N#Cc1c(N)nc(SCc2coc(-c3ccc(Cl)cc3)n2)c(C#N)c1-c1ccc(OCCO)nc1 [Example 31]	235	0.09	101
Cc1oc(-c2ccc(Cl)cc2)nc1CSc1nc(N)c(C#N)c(-c2ccc(OCCO)nc2)c1C#N [Example 37]	1260	0.3	1750
N#Cc1c(N)nc(SCc2coc(-c3ccc(Cl)cc3)n2)c(C#N)c1-c1ccc(OC[C@@H](O)CO)nc1 [Example 42, 2′-Amino-6′-({[2-(4-chlorophenyl)-1,3-oxazol-4-yl]methyl}thio)-6-{[(2S)-2,3-dihydroxypropyl]-oxy}-3,4′-bipyridine-3′,5′-dicarbonitrile]	516	0.09	355
N#Cc1c(N)nc(SCc2coc(-c3ccc(Cl)cc3)n2)c(C#N)c1-c1ccc(OC[C@H](O)CO)nc1 [Example 43, 2′-Amino-6′-({[2-(4-chlorophenyl)-1,3-oxazol-4-yl]methyl}thio)-6-{[(2R)-2,3-dihydroxypropyl]-oxy}-3,4′-bipyridine-3′,5′-dicarbonitrile]	185	0.04	72
N#Cc1c(NCCO)nc(SCc2csc(-c3ccc(Cl)cc3)n2)c(C#N)c1-c1ccc(OCCO)nc1 [Example 46]	166	0.04	266

These reach a lower EC50 [1]. Values come first.

EC50 [1] [nM]	EC50 [2] [nM]	EC50 [3] [nM]	SMILES
5.8	0.8	2180	N#Cc1c(N)nc(SCc2csc(Nc3ccc(F)c(Cl)c3)n2)c(C#N)c1-c1ccc(OCCO)nc1 [Example 1, 2′-Amino-6′-[({2-[(3-chloro-4-fluorophenyl)amino]-1,3-thiazol-4-yl}methyl)thio]-6-(2-hydroxyethoxy)-3,4′-bipyridine-3′,5′-dicarbonitrile]
3.7	0.2	123	N#Cc1c(N)nc(SCc2csc(Nc3ccc(F)cc3)n2)c(C#N)c1-c1ccc(OCCO)nc1 [Example 3]
8.5	0.6	190	N#Cc1c(N)nc(SCc2csc(Nc3cccc(F)c3)n2)c(C#N)c1-c1ccc(OCCO)nc1 [Example 5]
5.7	0.4	150	N#Cc1c(N)nc(SCc2csc(Nc3ccc(F)c(F)c3)n2)c(C#N)c1-c1ccc(OCCO)nc1 [Example 11]
5.5	0.09	21	N#Cc1c(N)nc(SCc2cscn2)c(C#N)c1-c1ccc(OCCO)nc1 [Example 13]
95	0.08	547	N#Cc1c(SCc2csc(-c3ccc(Cl)cc3)n2)nc(N2CCCC2)c(C#N)c1-c1ccc(OCCO)nc1 [Example 44, 2′-({[2-(4-Chlorophenyl)-1,3-thiazol-4-yl]methyl}thio)-6-(2-hydroxyethoxy)-6′-pyrrolidin-1-yl-3,4′-bipyridine-3′,5′-dicarbonitrile]
